{"source": "patent US11305021B2", "about": "“Membrane-lytic block copolymers” (UNIVERSITY OF WASHINGTON, priority 2016, dated 2022)", "key": {"human red blood cells": {"tested_on": "human red blood cells", "assay": "Hemolysis assay (acid-triggered membrane-lytic activity)", "type": "cell-based", "description": "Hemolysis assay was used to evaluate the acid-triggered membrane-lytic activity of the synthesized materials at pH 7.4 (extracellular pH) and 5.7 (endosomal pH). Briefly, plasma from human blood was removed by centrifugation. The red blood cells were washed three times with 150 mM NaCl, and resuspended into phosphate buffer (PB) at pH 7.4 or 5.7. The polymers at various concentrations ([…]) and 1% Triton X-100 as control, were added to the RBC suspensions in a 96-well conical plate and was allowed to incubate for 1 h at 37° C. After centrifugation, the released hemoglobin within the supernatant was measured by UV at 541 nm. Percent hemolysis was calculated relative to Triton X-100. Experiments were performed in triplicate."}, "[1]": {"tested_on": "HeLa, KB, A549 and Z310 cells", "assay": "GFP transfection", "type": "cell-based", "details": "GFP plasmid", "description": "The transfection with GFP (green fluorescence plasmid) on different cell lines was the same as that with luciferase plasmid. For analysis, cells were washed with PBS, trypsinized and pelleted at 300×g for 5 min at 4° C. The pellet was resuspended in 0.3 mL propidium iodide (PI) solution (1 μg/mL in 0.5% BSA in PBS), kept on ice and analyzed using flow cytometry, MACSQuant Analyzer (Miltenyi Biotec Inc., Auburn, Calif.). Intact cells were identified using the forward and side scatter data. The resulting cell population was gated into GFP+/PI+, GFP+/PI−, GFP−/PI+ and GFP−/PI− based on the green fluorescence and PI intensity from the control samples (cells transfected without the polymers but DNA only) and reported as the mean percentage of cell population that is GFP+/PI− including standard deviation (SD). All experiments were conducted in triplicate."}, "[2]": {"tested_on": "HeLa, KB, A549 and Z310 cells", "assay": "In vitro transfection with luciferase plasmid", "type": "cell-based", "description": "HeLa, KB, Z310 and A549 cells were seeded at a density of 25,000 cells/well in complete cell culture medium in a 24-well plate. Cells were firstly incubated at 37° C., 5% CO2 for 24 h. Polyplexes were prepared at different N/P ratios using 0.5 μg of pCMV-Luc2 pDNA in 10 μL total volume. Each sample was diluted to 200 μL with complete cell culture medium. The cells were rinsed once with PBS, followed by the addition of transfection solution. After incubation for 4 h, cells were washed with PBS twice and the polyplexes solution was replaced with complete cell culture medium. After additional 20 h incubation, luciferase activity was quantified with a luciferase assay kit (Promega Corp, Fitchburg, Wis.) according to the manufacturer's instruction, except that a freeze-thaw cycle at −80 OC was included after the addition of the lysis buffer to ensure complete cell lysis. Luminescence intensity was measured on the plate reader with integration for 1 s. The total protein content in each well was measured by a BCA Protein Assay Kit (Thermo Scientific, Rockford, Ill.) according to the manufacturer's instruction so that the luciferase activity was normalized to the total protein content in each well. Each sample was tested with a sample size (n)=3. The N/P ratio used for bPEI is 5, which was previous determined to show optimized transfection efficiency. […]"}, "[3]": {"assay": "Assembly behavior of VIPER by TEM imaging and DLS analysis", "type": "physicochemical", "from_the_text": "To verify this hypothesized mechanism, the assembly behavior of VIPER at pH 7.4 and pH 5.7 was monitored by both transmission electron microscopy (TEM) imaging and dynamic light scattering (DLS) analysis. VIPER assembles into uniform spherical nanoparticles with diameter around 30 nm at pH 7.4 (FIGS. 2A and C for TEM and DLS, respectively).\nThe morphology of polymers and polyplexes under dried state were imaged on a JEOL 1140 TEM at an acceleration voltage of 100 kV. In order to observe the morphology of polymer assemblies under different pHs, the polymer solutions (1 mg/mL, in distilled water) were diluted with PB to pH 7.4 and 5.7. Then the resulting solutions (10 μL) were deposited on the top of the 400-mesh formvar/copper grids and incubated at room temperature for 30 min. After staining with uranyl acetate, the grids were allowed to air dry overnight. The preparation of polyplexes samples were the same as polymer samples."}}, "note": "Entries after “also recorded” stand apart in the source; their conditions may differ.", "data": [{"substance": "P(OEGMA11-DMAEMA56)-b-p(DIPAMA33-PDSEMA-g-melittin)1) [VIPER]", "values": [{"measurement": "concentration for 50% lysis", "setting": "human red blood cells; pH 5.7", "result": 30, "unit": "µg/mL"}, {"measurement": "concentration for complete lysis", "setting": "human red blood cells; pH 5.7", "result": 120, "unit": "µg/mL"}, {"measurement": "cell lysis", "setting": "human red blood cells; pH 7.4, VIPER concentrations as high as 240 μg/mL", "result": "no significant cell lysis; also recorded: minimal membrane-lytic activity"}, {"measurement": "fold more transfected cells compared to CP", "setting": "[1]", "result": "13- to 60 fold"}, {"measurement": "fold more transfected cells compared to bPEI", "setting": "[1]", "result": "11- to 46 fold"}, {"measurement": "transfection efficiency, GFP+ cells", "setting": "[1]; range over cell lines", "result": "36-77%"}, {"measurement": "transfection efficiency compared to optimized LF formulations", "setting": "[2]; HeLa, KB and Z310 cells", "result": "improved transfection efficiency"}, {"measurement": "luciferase activity compared to CP and bPEI", "setting": "[2]; all tested cell lines", "result": "orders of magnitude higher"}, {"measurement": "assemblies observed", "setting": "[3]; pH 5.7", "result": "no assemblies were observed"}, {"measurement": "diameter of nanoparticles", "setting": "[3]; pH 7.4", "result": "around 30 nm"}]}]}
